Data set [1] can be described thus: Mouse plasma concentration after IP injection. The class given is in vivo, mice. Here is the method: The bioavailabilities of certain compounds were examined in mice. Administration of the compounds was performed by intraperitoneal (IP) injection using a vehicle as known to those skilled in the art. To measure compound concentrations in plasma, blood is collected by cardiac puncture at a specified time after dosing. It is then centrifuged in a plasma separator tube with NaEDTA/NaF as the anticoagulant, and the resulting plasma is stored at −80° C. For analysis, an internal standard is added to a 200 μL aliquot of plasma, and the aliquot is extracted with ethyl acetate. The ethyl acetate extract is analyzed by LC/MS and quantitated using a standard curve prepared by adding known amounts of test compound and internal standard to 200 μL aliquots of blank mouse plasma.
Many vehicles can be used to examine bioavailability. Prior to administration, each vehicle was optimized based on compound solubility according to the formulation research conducted by Uckun et at (Uckun, F. M., Tibbles, H., Erbeck, D., Venkatachalam, T. K., Qazi, S., 2007). In vivo pharmacokinetics and toxicity of a novel hydrophilic oral formulation of the potent non-nucleoside reverse transcriptase inhibitor compound N′-[2-(2-thiophene)ethyl]-N′-[2-(5-bromopyridyl)]-thiourea (HI-443). Arzneimittelforschung 57, 218-226.). […] The concentration of PEG400 is modulated depending upon solubility of the compounds and the amount of water phase added.
With larger injections (75-100 mg/kg), plasma concentrations were >4 times the IC50 at 6 h.

Data set [2] relates to NCI-H460 (large cell lung carcinoma) cells. Kind of data set: Antiproliferation assay (CELLTITER 96 AQueous, 72 h). The class given is cell-based. As to conditions: Homo sapiens. Here is the method:
Bifidenone was tested for its ability to inhibit the proliferation of human cancer cells in vitro as described in the following paragraph. IC50 is defined as the concentration of compound necessary to achieve 50% of the maximum growth inhibition.
For the antiproliferation assay, NCI-H460 (large cell lung carcinoma) or M14 (amelanotic melanoma) cells were grown in RPMI-1640 with 10% FBS supplemented with L-glutamine and HEPES. Cells were seeded into 96-well plates at 5×10^2 to 5×10^4 cells/well and allowed to adhere overnight; the medium was then removed. A stock solution of test compound in DMSO was diluted in medium to generate a series of working solutions. Aliquots (100 μL) of the working solutions were then added to the appropriate test wells to expose cells to the final concentrations of compound in a total volume of 100 μL. Seven different concentrations were tested, with 2-5 wells per concentration. Camptothecin was used as a positive control; wells containing vehicle without compound were used as negative controls. Plates were kept for 72 h in a 37° C., 5% CO2 incubator. After incubation, viable cells were detected with the CELLTITER 96 AQueous Non-Radioactive Cell Proliferation Assay (Promega), and IC50 values were determined using GraphPad Prism 5 software.

The subject of another data set is tubulin. Kind of data set: In vitro tubulin polymerization assay. The class given is biochemical. Conditions: absorbance readout, FIG. 3. Here is the method: To test the hypothesis that bifidenone inhibits cell proliferation by interfering with microtubule dynamics, it was tested in an in vitro tubulin polymerization assay. FIG. 3 illustrates inhibition of tubulin polymerization by bifidenone. Increased absorbance corresponds to increased polymerization.

A further data set concerns PARP and caspase-7. Kind of data set: Western blot of PARP and caspase-7 cleavage. The class given is cell-based. As to conditions: FIG. 7. For orientation: Immunoblotting shows a protein as a band on a membrane.
Data set [3] deals with caspases 3 and 7 in NCI-H460 lung cancer cells. Kind of data set: Caspase 3/7 luminescent apoptosis assay. As to conditions: NCI-H460, varying concentrations. The class given is cell-based, human. Here is the method:
FIG. 6 illustrates Caspase assay. Enzyme activity of caspases 3 and 7 was determined using a luminescent assay. NCI-H460 lung cancer cells were treated with varying concentrations of bifidenone or the known antitubulin agents paclitaxel or colchicine. The readout of relative light units is proportional to total caspase 3 and 7 activity.

Data set [4] is described as follows: Epimerization by TFA in HPLC solvents. The class given is physicochemical. Conditions: TFA (0.05%) in HPLC solvents. Here is the method:
To obtain additional bifidenone for antiproliferation assays, the remaining material from the Beilschmiedia specimen was fractionated. […] Consequently, future isolations were performed without TFA in the semipreparative steps. Ultimately, 79 μg of bifidenone was isolated.

The test system of data set [5] is NCI-H460 lung cancer cells. Kind of data set: Cell cycle analysis (propidium iodide, flow cytometry). Conditions: NCI-H460, 1, 2, or 3× the IC50 for 6, 18, or 24 h. In kind it is cell-based, human. How it is done:
Antitubulin agents typically interfere with mitosis by disrupting the microtubule dynamics necessary for cell division. […] Cells were then treated with propidium iodide and analyzed using flow cytometry.

The next data set concerns NCI-H460 cells. Kind of data set: Western blot analysis of G2/M markers. The class given is cell-based, human. As to conditions: NCI-H460, 21 h. Here is the method:
Nocodazole is known to cause G2/M arrest. Cell lysates were analyzed by western blot using the antibodies indicated on the left. Individual protein bands are designated on the right.

The subject of data set [6] is colchicine binding site of tubulin. Kind of data set: Ultrafiltration-based tubulin competition assay. Conditions: free ligand by LC/MS. From the text:
(§1) In order to determine the binding site of bifidenone on tubulin, a published ultrafiltration-based competition assay was used. In this assay, tubulin is allowed to bind with a known ligand, and then free ligand is separated by ultrafiltration and analyzed by LC/MS. In the presence of a competitor, the concentration of free ligand increases. […] FIG. 8 illustrates tubulin competition assay. Each graph depicts the amount of unbound compound detected in the presence of varying concentrations of competitors. Known competitors were used as positive controls: podophyllotoxin for the colchicine site (left), vinblastine for the vincristine site (center), and docetaxel for the paclitaxel site (right). Amounts of free compound are expressed as percentages normalized to the amount of free compound detected in the presence of 100 μM known competitor.

For data set [7], the system named is paclitaxel binding site of tubulin. Kind of data set: Ultrafiltration-based tubulin competition assay. As to conditions: free ligand by LC/MS.
Excerpt: as §1

The results in this text go back to patent publication US20170073324A1, “Bifidenone Compositions and Methods of Use” (Sequoia Sciences, Inc., priority 2015, published 2017).

Each structure is given as a SMILES string. Where two headings read alike, the source gives them in different places.

As usually defined, the IC50 is the concentration needed to halve the response being measured. As for `C=CC[C@H]1C[C@]2([C@@H](C)Cc3ccc(OC)c(OC)c3)OCOC2=CC1=O` [bifidenone, (6S,7aR)-6-Allyl-7a-((S)-1-(3,4-dimethoxyphenyl)propan-2-yl)-7,7a-dihydrobenzo[d][1,3]dioxol-5(6H)-one], the “change of plasma concentration with vehicle” value in [1] (initial formulation diluted with up to 20% water) is “not diminished”. The concentration at 1 h in data set [1] (mouse, plasma, 1 h post-injection, 40 mg/kg IP, vehicle 40% propylene glycol, 20% TWEEN-20, 20% PEG400, 20% ethanol) is more than 360 nM. Further, the “change of plasma levels with vehicle” value in data set [1] (propylene glycol decreased to 25%) is given as “diminished”; in [1] (propylene glycol increased to 45% and TWEEN-20 decreased to <3%), “increased or were not diminished”. Also, the IC50 in data set [2] (NCI-H460, 72 h, read-out: IC50 against NCI-H460) came to 360 nM; in data set [2] (NCI-H460, as restated in Example VII, read-out: IC50 against NCI-H460 human lung cancer cells), 360 nM. The “inhibition of tubulin polymerization” value in the data set with tubulin is given as “inhibits tubulin polymerization in a dose-dependent manner”. For the same compound, in the data set with PARP and caspase-7, the “cleavage of caspase-7 and PARP” value was “cleavage of caspase-7 and PARP occurred”. In addition, the “apoptosis by enzymatic activity of caspases 3 and 7” value in data set [3] is “undergo apoptosis”. Moreover, the “stability to TFA” value in data set [4] is reported as “prone to epimerization”. In [5], the cell cycle effect result is “causes arrest in the G2/M phase of the cell cycle”. Besides, in the data set on NCI-H460 cells, the “protein expression and phosphorylation patterns (Histone H3 Ser10, Myt1, Aurora A/B/C, cdc2 Tyr15)” value is on record as “consistent with G2/M arrest”. For the same compound, the “competition for the colchicine binding site” value in data set [6] is recorded as “competes for the colchicine binding site”. For the same compound, the “competition for the paclitaxel binding site” value in [7] is recorded as “weakly for the paclitaxel binding site”.
